Like-named read-outs stand apart in the source and are kept apart here.

The subject of one data set is HUVEC. Kind of data set: Tube formation assay. It counts as cell-based, human. As to conditions: HUVEC on matrigel, 16-18 h, tested concentrations 200, 100, 50, 25, 10 μM. As to the method:
A protocol was designed based on the instructions from the provider (BD Bioscience, San Jose, Calif.). Briefly, wells of a 48 well culture dish were covert with 150 μL matrigel and the matrigel was gelatinized for 30 min at 37° C. A 80-90% confluent HUVEC (BD Bioscience, San Jose, Calif.) culture was trypsin treated, the detached cells were collected by centrifugation and resuspended in EGM-2 media (BD Bioscience, San Jose, Calif.). Cell concentration was adjusted to 100.000 cells/mL. 400 μL of the cell suspension were filled in the matrigel coated wells, and a solution of the inhibitor was added to the intended final concentration. The plates were incubated at 37° C. with 5% CO2 for 16-18 h. Media was removed, and the matrigel surface was washed twice with 500 μL PBS before cells were labeled with 250 μL 8 μM Calcein AM (Pierce, Rockford, Ill.) in PBS for 30 min at 37° C. After two additional washing steps (500 μL PBS) cells were visualized under an inverted microscope. Fluorescence was excited at 488 nm and recorded at 538 nm. The minimum effect concentration was defined as the minimal inhibitor concentration that caused a definite disturbance of the complexity of the formed tube network.

The conditions of data set [1]: reported by Imoto / Kosan; read-out: IC50 value, reported activity in a wound healing assay; cited from earlier work.
In data set [2] the test system is mouse breast tumor cells (4T1 cells). Kind of data set: Boyden chamber cell migration assay, 4T1. Type of data set: cell-based. As to conditions: Mus musculus, 4T1, read-out: IC50 value, chamber cell migration assay.
Data set [3] is described as follows: Mouse blood plasma stability. As to conditions: test period one hour. As to the method: The biological evaluation of the compounds (in terms of their ability to inhibit cell migration) was accomplished in a Boyden chamber cell migration assay. In this assay, mouse breast tumor cells (4T1 cells) or endothelial cells (HUVECs) are seeded on the upper chamber of a transwell insert. Growth factor-containing serum is added to the lower chamber.
In anticipation of subsequent in vivo evaluation of these compounds and others, preliminary metabolic stability studies were carried out. […] As a test of the ‘deactivation hypothesis’, the hydrolysis product of macrolactone 48 was prepared (Scheme 27) and tested for its activity against tumor cell migration.

Another data set relates to mouse 4T1 cell. Conditions: mouse 4T1 cell proliferation; previously reported (WO 2004/087672); cited from earlier work.
Data set [4] concerns six solid human tumor cell lines and four liquid cancer cell lines. Kind of data set: Chamber cell migration, various human cancer cells (overall statements). It counts as cell-based. Conditions: migration inhibition. As to the method: Additional evaluation was conducted in a variety of human cancer cells and xenographs (See FIGS. 4-19). […] Unexpectedly, a very high selectivity between the various tumor cell lines was detected (Table 4 and FIG. 2). […] As stated above, non-transformed human cells such as HUVEC appear to be largely more resistant to the compounds. […] This was an unforeseen discovery, especially in light of the response observed for these compounds to the 4T1 mouse breast cancer cell line (previously reported in WO 2004/087672).
Cell migrations were assayed with 8 μm of microporous 6.5-mm transwell plates (Corning). 200 μl of 2×10^5 cells in serum-free RPMI1640 medium containing 0.5% BSA were added to the upper chamber and 600 μl of medium with 10% fetal bovine serum was added to the lower chamber. […] Cells migrated to the lower wells were collected and counted for liquid tumors, solid tumors were processed as previously described.^28 Data shown are representative of at least three experiments.

The nature of data set [5]: Chamber cell migration assay, preliminary (Table 3). It counts as cell-based. As to conditions: 36 h, tested concentrations 200, 100, 50, 25, 10 μM. As to the method:
Cells were grown in an appropriate media to 70 to 80% confluence and incubated in serum and growth factor free media for 24 h. Cells were detached by trypsin treatment, collected by centrifugation and resuspended in serum free media to a final concentration of 150,000 cells/mL. 400 μL of the cell suspension were loaded into a fibronectin coated insert for 24 well multidishes. 750 μL fully supplemented media were applied to the compartment under the insert. To both chambers the inhibitor was added at the intended concentration and the plates were incubated for 36 h at 37° C., 5% CO2. […] The resulting CyQuant assay solution was transferred to the cavities of a 96 well microtiter plate and the fluorescence signal was recorded in an appropriate reader. The CyQuant dye forms a highly fluorescent complex with DNA, thus the fluorescence signal is proportional to the number of cells that migrated through the membrane in the presence of the test compound (N^inh) A positive control (i.e., without a test compound in the growth media) was carried out according to the procedure described above, except that no test compound was added. The positive control fluorescent reading correlates with the number of cells that migrate through the membrane in the absence of inhibitor (N^+). […] The anti-migratory effect of a test compound is determined by the ratio (N^inh−N^−)/(N^+−N^−).

Data set [6] deals with adherent cells (e.g. KYSE-520 cells). Kind of data set: Wound healing (scratch) assay, preliminary (Table 2). It counts as cell-based. Conditions: 28 to 30 h, tested concentrations 200, 100, 50, 25, 10 μM. As to the method: The wound healing assay was performed based on the method described by Nakae et al. (Nakae et al., J. Antibiotics (2000), 53, 1130-1136). Briefly, adherent cells were grown in a suitable media to confluence (e.g. KYSE-520 cells in RPMI-1640 with 10% FBS). Cells were starved for 24 h in serum free media A scratch (ca. 0.5 mm) was applied and the cell layer was washed twice with PBS after removal of the media. Fresh, serum free media with the test compound at the desired concentration was added and the cells were incubated for 28 to 30 h at 37° C., 5% CO2. The scratch size was compared to that observed for cells exposed to 100 μM Migrastatin. Test compounds associated with a scratch size equal to or larger than that observed for cells exposed to 100 μM Migrastatin were deemed to have cell migration inhibitory activity at least equal to Migrastatin.

For `CO[C@H]1/C=C/CC/C=C/C(=O)OC([C@H](C)C(=O)CCCC2CC(=O)NC(=O)C2)/C(C)=C\[C@@H](C)[C@@H]1O` (some centres unmarked) [Migrastatin (1), Migrastatin], the Minimum effect concentration (in the data set with HUVEC; in data set [6]) was 100 µM throughout. Moreover, the IC50 was 29 µM in data set [1], 29 µM in data set [2], 42 µM in the data set on mouse 4T1 cell and 200 µM in data set [5]. For the same molecule, in data set [3], the “metabolic stability in mouse blood plasma” value is on record as “completely inert toward lactone opening”. Further, the “response of the human tumor cell lines tested” value in data set [4] is reported as “did not respond well to any of the cell lines tested”.

(Values after US8957056B2, “Migrastatin analogs in the treatment of cancer” (Sloan-Kettering Instiute for Cancer Research, priority 2004, dated 2015).)
